# Measurements: the METLIN SMRT retention time set (Domingo-Almenara et al. 2019)
# Test: gradient 5% acetonitrile 3 min, to 50% in 2 min, to 85% in 15 min, held 3 min, 100 µL/min
# Details: column: Zorbax Extend-C18 2.1 x 50 mm; eluents: water / acetonitrile, 0.1% formic acid
# Method in brief: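 The mobile phases were water and acetonitrile, each with 0.1% formic acid, pumped at 100 μL/min through a Zorbax Extend-C18 column (2.1 × 50 mm, 1.8 μm). Pure standards were injected as mixtures of ~100 molecules and detected by a quadrupole time-of-flight mass spectrometer in positive and negative ionization mode. Retention time came from computationally picked adduct peaks, each inspected by hand.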
row,SMILES,RP-LC retention time [s]
1,O=C(C1CCOC1)N1CC(Oc2ccc(-c3nc(-c4ccccc4)no3)cc2)C1 (centres undefined),952
2,Cc1ccc(C(=O)N2CCC3(CC2)N=C(c2ccc(Cl)cc2)NO3)cc1,895
3,Cc1ccc(C(=O)NC2CCN(c3ncnc4c3CCC4)C2)s1 (centres undefined),606
4,CN1CCn2cc(S(=O)(=O)Nc3ccc(C#N)cc3)cc2C1=O,662
5,COc1ccccc1CC1C(=O)Nc2ccc(Br)cc21 (centres undefined),976
6,Cc1nc(N2CCOCC2)c2c(C(=O)N3CCN(c4ccc(Cl)cc4)CC3)c(C)oc2n1,895
7,CC1CCN(C(=O)C(=O)NCc2n[nH]c(=O)c3ccccc23)CC1,639
8,Cc1ccc(NC(=O)N2CCN(c3ccc(=O)n(-c4ccccc4)n3)CC2)cc1,674
9,Cc1ccc(CNC(=O)c2cc3sccc3n2Cc2ccc(F)cc2)cc1,888
10,CCOc1ccccc1CNC1CCN(c2ccc(C(=O)NC3CC3)cn2)C1 (centres undefined),579
11,Cc1ccc(N(Cc2ccccc2)S(=O)(=O)c2ccc3nnc(C)n3c2)cc1,884
12,Cc1ccc(S(=O)(=O)[C@H]2CS(=O)(=O)C[C@@H]2N2CCN(c3ccc(F)cc3)CC2)cc1,962
13,CCc1cccc(NC(=O)N2CCc3nc[nH]c3C2)c1,606
14,O=C(NCc1cccc(Br)c1)C1CCCN(C(=O)C2Sc3ccccc3NC2=O)C1 (centres undefined),800
15,CCN1CCN(c2c(C(=O)c3ccccc3)cnc3cc4c(cc23)OCO4)CC1,563
16,CC(C)NC(=O)CN1c2ccc(F)cc2-c2ccccc2S1(=O)=O,831
17,COC(=O)C1CCN(S(=O)(=O)c2ccc(Cl)c(-c3nnc(-c4ccccc4)o3)c2)CC1,1040
18,O=C1NCCOCCN(C(=O)Nc2ccccc2)[C@@H]2CCCC[C@H]12,741
19,CCCN1CCN(c2cc(C(=O)O)c3cc(NC(=O)c4ccccc4F)ccc3n2)CC1,601
20,COc1cc(-c2nc(Nc3ccc(C)cc3)c3ccccc3n2)cc(OC)c1OC,796
21,CN1CCN(CCNC(=O)c2ccc(NC(=O)C3=CSCCO3)cc2)CC1,754
22,COc1ccc(C2(C(=O)N3CCCCCCN(C)C(=O)[C@@H]4CCC[C@@H]43)CC2)cc1,922
23,Cc1oc2ccn(Cc3cccc(F)c3)c(=O)c2c1C(=O)NC1CCCC1,1060

row,SMILES,RP-LC retention time [s]
1,CC(=O)c1ccc(Nc2c(C(=O)N3CCOCC3)cnc3nc(C)ccc23)cc1,568
2,NS(=O)(=O)c1ccc(CNC(=O)C2CCN(C(=O)NCc3cccs3)CC2)cc1,612
3,CCCN(C)c1nccn2c(=O)n(CC(=O)Nc3ccc(C)cc3Cl)nc12,736
4,Cc1ccc2c(c1)C(O)(CC(=O)c1cccc(Br)c1)C(=O)N2 (centres undefined),789
5,O=C(O)CSc1nnc(COc2cccc3cccnc23)n1-c1ccccc1,577
6,Cc1nnc(N2CCC(C(=O)NCCN(C)C)CC2)c2nn(-c3ccc(Cl)cc3)c(C)c12,586
7,CNC(=O)C1CCCN(c2nc3ncn(CC(=O)Nc4ccc(C)cc4C)c(=O)c3s2)C1 (centres undefined),646
8,COc1ccccc1NC(=O)N1CCN(Cc2nc3ccc(Cl)cc3o2)CC1,731
9,O=C1NC(c2ccccc2)(C(F)(F)F)SC2=NCCCN12 (centres undefined),584
10,Cc1ccc(Oc2nccnc2N2CCCC(C(=O)N3CCN(c4cc(C)ccc4C)CC3)C2)cc1 (centres undefined),1400
11,O=C(c1ccc(-c2csc(C3CC3)n2)cc1)N1CCCCCC1,1070
12,O=C1COc2ccccc2N1Cc1nc(-c2cccc(C(F)(F)F)c2)no1,1100
13,COc1cc(NC(=O)c2c(O)c3cccnc3n(-c3ccccc3)c2=O)cc(OC)c1,1250
14,CCc1ccccc1NC(=O)N1C[C@@H](F)C[C@H]1C(=O)N1CCc2ccccc2C1,811
15,Cc1nc(-c2cc(S(=O)(=O)NCc3ccc(OC(C)C)cc3)c(C)s2)cs1,1080
16,O=C(C1CCN(c2cnc(N3CCCC3)nc2)CC1)N1CCOCC1,587
17,COc1ccc2c(c1)C1(CCN(C(=O)NCCc3ccccc3)C1)C(=O)N2C (centres undefined),757
18,O=C(CN1CCN(Cc2cccc(Cl)c2)C1=O)N1CCN(C2CCCCC2)CC1,648
19,CCOc1ccc2ncc(S(=O)(=O)c3ccc(C)c(C)c3)c(N3CCN(C)CC3)c2c1,658
20,CCN(CC)CCCNC(=O)c1cccn1-c1nnc(N2CCCC2)s1,562
21,COCCNC(=O)c1ccc2c(c1)CCCN2C(=O)c1ccc(Cl)cc1,752
22,CCC(C)NC(=O)N1CCN(c2cc(-c3ccc(OC)c(OC)c3)ncn2)CC1 (centres undefined),621
23,Cc1ccc(-c2csc(Nc3ccccc3C)n2)cc1,1240

row,SMILES,RP-LC retention time [s]
1,CCN(CC)c1nc2ccsc2c(=O)n1CC(=O)NCc1ccc(Cl)cc1,908
2,O=C(NCCN1CCCC1)C1CCN(c2nc(-c3ccc(Cl)cc3)no2)CC1,603
3,CCOc1ccc(S(=O)(=O)N2CC(=O)N(C3CCCC3)C3(CCCCC3)C2)cc1,1230
4,CN1C(=O)c2cccnc2Sc2cc(NC(=O)c3cccc(C(F)(F)F)c3)ccc21,910
5,O=S(=O)(NCCc1noc(-c2ccccc2)n1)c1cccs1,849
6,COc1cccc(-c2ccc(=O)n(CCc3nc(-c4ccc(C)cc4)no3)n2)c1,999
7,CCNc1cc(N2CCC(CCC(=O)NCc3ccccc3Cl)CC2)ncn1,585
8,CCN(CC)C(=O)N[C@@H]1C[C@@H]2c3cccc4[nH]cc(c34)C[C@H]2N(C)C1,684
9,CCc1nc(N2CCC(C(=O)NCc3ccc(OC)cc3OC)CC2)c2c(C)scc2n1,706
10,CC(=O)N1CCC(C(=O)Nc2cc(-c3nnc(C)o3)sc2C)CC1,648
11,Cc1ccc(N2C(=O)CN(S(C)(=O)=O)CC2(C)C(=O)NCc2ccccc2)cc1C (centres undefined),758
12,Cc1ccc(-c2nnc(-c3ccccc3)o2)cc1S(=O)(=O)N1CCOCC1,922
13,COCCN(CC(=O)N1CCc2sccc2C1COc1cccc(F)c1)C(=O)C1CCCC1 (centres undefined),999
14,Cc1nc(C)c(C(=O)Nc2nc(-c3ccc(OC(C)C)cc3)cs2)s1,1020
15,CCCC(=O)NCCn1c(=O)n(Cc2ccc(C)cc2)c2cccnc21,759
16,O=C(NCCCN1CCOCC1)C1CCCN(c2ncc(-c3cccc(F)c3)cn2)C1 (centres undefined),653
17,O=C(Nc1ccc(F)cc1)N1CCC(CCOc2ccncc2)CC1,616
18,CN(CCc1ccccn1)C(=O)C1CCN(c2cn[nH]c(=O)c2)CC1,536
19,COc1ccc(NC(=O)N2C[C@@H](F)C[C@H]2C(=O)N2CCCCC2)cc1OC,643
20,CC(C)Cn1c(=O)c(-c2ccc(C(=O)NCc3ccncc3)cc2)nc2ccccc21,681
21,C/C(=C\C(=O)Nc1ccccc1C(=O)O)c1ccc2ccccc2c1,1150
22,O=C(Nc1ccccc1C(F)(F)F)N1CCC(N2CCN(Cc3ccc(F)cc3)C(=O)C2=O)CC1,752
23,CN(CCc1ccccn1)C(=O)CCC1CCCN(c2cc(NC3CC3)ncn2)C1 (centres undefined),561

row,SMILES,RP-LC retention time [s]
1,O=C(NCc1ccccn1)C1CCN(c2cc(N3CCSCC3)ncn2)CC1,559
2,Cc1ccc(Cn2nc3c(S(=O)(=O)N4CCCCC4)cccn3c2=O)cc1,925
3,Cc1ccc(CNC(=O)C2CCN(c3cnc(N4CCCC4)nc3)CC2)cc1C,716
4,CCN(CC)C(=O)Cn1c(C2CC(=O)N(C3CCCC3)C2)nc2ccccc21 (centres undefined),657
5,CCOc1ccc(CNC(=O)C2=C3CCCN3c3ccc(F)cc3S2(=O)=O)cc1,892
6,CCCC(NC(=O)CCc1ccccc1)C(=O)Nc1nc2ccccc2[nH]1 (centres undefined),718
7,CCN1/C(=C/C(C)=O)Sc2ccc(OC)cc21,845
8,Cc1ccc(CC(=O)NC2CCN(c3nnc4ccc(C(F)(F)F)cn34)CC2)cc1,815
9,CCN(CC)CCNCc1ccc(-c2ccc(Cl)cc2)o1,591
10,O=C(NCCN1C(=O)C2(CCCCC2)C1c1ccccc1)Nc1ccccc1F (centres undefined),965
11,CC1Cc2cc(-c3cc(CNC(=O)c4ccccc4C(F)(F)F)no3)ccc2O1 (centres undefined),875
12,O=C(Nc1cccc(Cl)c1)N1CCC(N2CCN(Cc3ccccc3)C(=O)C2=O)CC1,736
13,Cc1oc(-c2[nH]ncc2C(=O)N2CCCCC2)cc1S(=O)(=O)Nc1ccccc1,730
14,COc1cccc(-c2noc(-c3nn(-c4ccc(F)c(F)c4)ccc3=O)n2)c1OC,796
15,COc1ccc(-c2noc(C3CC(=O)N(c4ccc(Cl)cc4)C3)n2)cc1OC (centres undefined),950
16,O=C(NCCC1CCN(C(=O)Nc2cc(F)ccc2F)CC1)c1ccsc1,737
17,O=C(c1ccc2c(c1)OCO2)N1CCCN(c2nnc3ccc(Cl)cn23)CC1,591
18,COCc1nc(C2CCN(C(=O)C3CCCC3)C2)no1 (centres undefined),688
19,CCCNC(=O)CCc1nc2ccccc2n(CC(=O)Nc2ccc(C(C)C)cc2)c1=O,891
20,O=C1C(c2cccnc2)N(Cc2ccco2)C(=O)CN1c1ccccc1 (centres undefined),619
